From US20170038365A1, “SMALL MOLECULE INHIBITORS OF 8-OXOGUANINE DNA GLYCOSYLASE-1 (OGG1)” (OREGON HEALTH & SCIENCE UNIVERSITY, priority 2015, published 2017) come the findings set out here.

In data set [1] the target is T1, OGG1 (Homo sapiens, UniProt O15527).
T1 construct: His tag; made in house; host or cells: bacterial culture (LB media, IPTG induction)
As to the kind of experiment: fluorescence-based OGG1 activity assay (TAMRA/BHQ2 8-oxo-Gua substrate). Type of data set: biochemical. The note with it: read-out: IC50 (OGG1 inhibition). As for the experimental part:
The OGG1 activity assay utilized a 17-mer oligodeoxynucleotide that contained an 8-oxo-Gua positioned 6 deoxynucleotides downstream of a 5′-TAMRA fluorophore and a complementary DNA strand that contained a 3′-Black Hole Quencher 2 (BHQ2) (FIG. 1). […] Therefore, inhibitors of OGG1 activity would be expected to result in a weaker fluorescence signal over time compared to a no inhibitor control.
The fluorescence-based assay outlined in FIG. 2A was performed in black, low volume 384-well plates with a final volume of 10 μL per well. […] Plates were incubated for 30 min at 37° C. and TAMRA fluorescence in each well was measured using the Biotek Synergy 4 platereader (Filters=Ex 528/20, Em 600/40. Mirror=Top 570 nm with polarizer). Background-subtracted fluorescence values were calculated for each well and any compound that had ≧40% decrease in fluorescence compared to the no inhibitor control was identified as a hit. […]
Assays to calculate IC50 values of OGG1, NEIL1, and NTH1 were fundamentally similar to the high-throughput screen except that the step for the addition of drug differed and a lower enzyme concentration was used. […] Plates were incubated at 37° C. for 40 min (OGG1), 5 min (NEIL1), and 10 min (NTH1), followed by the measurement of TAMRA fluorescence. […]

The target of data set [2] is T1, OGG1. Put plainly: OGG1 AP lyase activity on AP site-containing substrate (gel). It is filed as biochemical. The note with it: 10 μM compound, compared to no inhibitor control. Here is the method: FIG. 5A is a bar graph of OGG1 lyase activity on a substrate containing an AP site. The substrate was incubated without OGG1 (No Enz), with OGG1 (No Inh), or with OGG1+10 μM compound. The top band in each gel corresponds to uncleaved substrate and the bottom band is cleaved product. Mean percent cleavage compared to the no inhibitor control (% Activity) was plotted for three independent experiments. The uncertainties are standard deviations.
(§1) Hydrazides Inhibit the Glycosylase and Lyase Activities of OGG1. To verify the results of the fluorescence-based assay, gel-based assays were performed to detect OGG1-mediated strand cleavage of an 8-oxo-Gua-containing substrate at eight different inhibitor concentrations (FIG. 4). […] There are at least three possibilities that could account for how these molecules inhibit DNA strand cleavage by OGG1. […] This assay used γ-irradiated calf thymus DNA as a substrate and measured the number of free 8-oxo-Gua and FapyGua in solution released by OGG1. […]
(§2) Gel-based assays were performed by combining 4 μL of 2.5×OGG1 (62.5 nM) with 1 μL 10× inhibitor or buffer. […] Samples were analyzed by electrophoresis on a 15% polyacrylamide gel containing 8 M urea and bands were visualized by a FluorChem M imager (Protein Simple). Band intensities were quantified using the Image Studio Lite Software (LI-COR).

The target in data set [3] is T1, OGG1. Put plainly: OGG1 glycosylase activity on γ-irradiated calf thymus DNA by GC-MS/MS. It is filed as biochemical. The note with it: 0.1 μmol inhibitor. Here is the method: FIG. 5B is a bar graph of OGG1 glycosylase activity measured on irradiated calf thymus DNA. The number of excised 8-oxo-Gua per 10^6 DNA bases was measured by GC-MS/MS. Graph plots equal the mean of three independent experiments. The uncertainties are standard deviations.
FIG. 5C is a bar graph of OGG1 glycosylase activity measured on irradiated calf thymus DNA. The number of excised FapyGua per 10^6 DNA bases was measured by GC-MS/MS. Graph plots equal the mean of three independent experiments. The uncertainties are standard deviations.
as §1
The enzymatic activities of OGG1, NEIL1 and NTH1 were measured using gas chromatography/isotope-dilution tandem mass spectrometry (GC-MS/MS) and calf thymus DNA samples γ-irradiated at 20 Gy as described in Jaruga et al 2008 infra and Reddy et al, 2013 infra. […]

The target of data set [4] is T1, OGG1. Put plainly: gel-based OGG1 cleavage assay on 8-oxo-Gua-containing substrate. It is filed as biochemical. Particulars: eight inhibitor concentrations 0.008-25 μM. As for the experimental part: FIG. 4A is an image and plot showing a gel-based OGG1 activity assay of compound O8. 8-oxo-Gua-containing substrate was incubated without OGG1 (No Enz), with OGG1 (No Inh), or with OGG1+8 different concentrations (25, 8, 2.5, 0.8, 0.25, 0.08, 0.025, 0.008 μM) of inhibitors. The top band in the gel corresponds to uncleaved substrate and the bottom band is cleaved product. The Y-axis on each graph equals the percent substrate cleavage compared to the no inhibitor control (% Activity). Data points equal the mean of three independent experiments. The uncertainties are standard deviations.
Hydrazides Inhibit the Glycosylase and Lyase Activities of OGG1. To verify the results of the fluorescence-based assay, gel-based assays were performed to detect OGG1-mediated strand cleavage of an 8-oxo-Gua-containing substrate at eight different inhibitor concentrations (FIG. 4). […] This assay used γ-irradiated calf thymus DNA as a substrate and measured the number of free 8-oxo-Gua and FapyGua in solution released by OGG1. […]
as §2

Data set [5] has as its target T1, OGG1. Put plainly: sodium cyanoborohydride trapping assay of OGG1 and substrate. Particulars: 10 μM inhibitor, 1 mM NaBH3CN. It is filed as biochemical. As for the experimental part:
FIG. 6B is an image and bar graph of Sodium cyanoborohydride trapping of OGG1 and substrate. OGG1 was incubated with 8-oxo-Gua- (top gel), AP site- (bottom gel) or U-containing (last lane in each gel) substrates with or without 10 μM inhibitor or INH. Reactions were performed in the presence of 1 mM NaBH3CN. Top band in each gel corresponds to OGG1 trapped to substrate and the bottom band is untrapped substrate. Bands were quantified in each gel and the percent trapped compared to the no inhibitor control was plotted for each compound. Graph plots equal the mean of three independent experiments. The uncertainties are standard deviations.
FIG. 11 is an image and plot of a dose response for O8 trapping. […] Bands were quantified in each gel and the percent trapped compared to the no inhibitor control (% Trapped) was plotted for each compound. […] Mean T50 values in μM±std. dev. were calculated as described above.
To test whether these inhibitors interfere with catalysis, trapping experiments were conducted by carrying out the OGG1 activity assay in the presence of sodium cyanoborohydride. […] These values are slightly higher, but still very close to the calculated IC50 value for this inhibitor (Table 1).
A total of 4 μL of 2.5×OGG1 (125 nM) was mixed with 1 μL of 10× inhibitor. […] Band intensities were quantified using the Image Studio Lite Software. […]

Data set [6] has as its target OGG1 (8-oxoguanine DNA glycosylase-1) (Homo sapiens, UniProt O15527 O15527:1-345). Put plainly: EMSA; 50 nM OGG1, 25 nM DNA, on ice 5 min; also trapped by NaBH3CN (FIG. 6B); binding abrogated by ATA, unaffected by the five inhibitors. Particulars: tags: His-tag; expressed in bacteria, Ni-NTA purified; label: 5'-TAMRA; 3'-BHQ2 on complement in fluorescence assay. For orientation: A gel shift assay detects complexes by their altered migration in electrophoresis.
Protocol: To test whether these inhibitors affected OGG1 binding to an 8-oxo-Gua or AP site, gel shift assays were performed.
All experiments were performed on ice with pre-cooled reagents. […] 5 μL 2× substrate (50 nM) was added, mixed and kept on ice for 5 min. The reaction was quenched with 10 μL ice-cold 30% glycerol and loaded onto a pre-cooled 8% native gel containing 30% glycerol. The gel was run at 4° C. for 1 h (75 V) and bands were visualized by a FluorChem M imager. Band intensities were quantified using the Image Studio Lite Software.

T1 sequence (O15527 whole entry): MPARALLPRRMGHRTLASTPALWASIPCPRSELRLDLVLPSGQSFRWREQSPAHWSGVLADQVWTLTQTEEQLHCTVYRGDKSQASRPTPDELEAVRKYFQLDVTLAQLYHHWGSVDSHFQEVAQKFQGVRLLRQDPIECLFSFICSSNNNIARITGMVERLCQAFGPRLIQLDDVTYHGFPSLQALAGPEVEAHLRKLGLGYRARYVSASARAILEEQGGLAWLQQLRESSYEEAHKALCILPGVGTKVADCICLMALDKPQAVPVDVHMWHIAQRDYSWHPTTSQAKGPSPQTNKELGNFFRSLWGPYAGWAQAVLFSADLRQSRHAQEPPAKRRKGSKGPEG
Chain of OGG1 (8-oxoguanine DNA glycosylase-1) (O15527 whole entry, one chain of several): as the sequence (O15527 whole entry) above

In the case of `NC(=O)c1cc2ccccc2cc1O` [3-hydroxy-2-naphthamide], the half-maximal inhibitory concentration (IC50) at OGG1 [1] is greater than 50 µM.

Turning to `NNC(=O)c1cc2ccccc2cc1O` [3-hydroxy-2-naphthohudrazide], at OGG1 [1], the IC50 worked out at 0.075 µM.

For the molecule `Cc1cc(C(=O)NNCc2ccccc2)no1` [ICD, isocarboxazid], at OGG1 [2], the “effect on OGG1-induced cleavage of an AP site (AP lyase activity)” value is “no effect”. The “OGG1-mediated excision of 8-oxo-Gua and FapyGua” value at OGG1 [3] is on record as “little to no decrease”. Turning to `NNC(=O)c1ccncc1` [INH, isoniazid], the “inhibition of OGG1-mediated strand cleavage of 8-oxo-Gua-containing substrate” value at OGG1 [4] was “no inhibition”. For the same molecule, at OGG1 [5], the “effect on trapping of OGG1 (Schiff base formation) on 8-oxo-Gua- and AP site-containing substrates” value is reported as “no effect”. The “effect on OGG1-induced cleavage of an AP site (AP lyase activity)” value at OGG1 [2] was “no effect”. Also, the “OGG1-mediated excision of 8-oxo-Gua and FapyGua” value at OGG1 [3] is on record as “little to no decrease”.

B1: 8-oxo-Gua 17-mer duplex (dsDNA)
DNA 1: TCACCGTCGTACGACTC
DNA 2: GAGTCGTACGACGGTGA
modifications: n is 8-oxo-guanine; complement SEQ:2 appears printed 3'-5' [6 (8-oxo-guanine)]
In the case of B1, the binding result in data set [6] is “binds”.

The term IC50 denotes the point on the concentration scale where inhibition reaches its midpoint.
